Test results published in patent US11084814B2, “Pyrido[3, 4-d]pyrimidine derivative and pharmaceutically acceptable salt thereof” (Teijin Pharma Limited, priority 2016, dated 2021).

Experiments:
CDK4/cyclin D3 = molecular target: T1, CDK4/cyclin D3 (Homo sapiens, UniProt P11802); test: Human CDK4/cyclin D3 inhibitory activity (QS S Assist CDK4/Cyclin D3_FP Kit, IMAP fluorescent polarization); type: biochemical; conditions: read-out: CDK4 Activity symbol
T1 construct: purchased Carna Biosciences, Inc. QS S Assist CDK4/Cyclin D3_FP Kit
T1 sequence (P11802 whole entry): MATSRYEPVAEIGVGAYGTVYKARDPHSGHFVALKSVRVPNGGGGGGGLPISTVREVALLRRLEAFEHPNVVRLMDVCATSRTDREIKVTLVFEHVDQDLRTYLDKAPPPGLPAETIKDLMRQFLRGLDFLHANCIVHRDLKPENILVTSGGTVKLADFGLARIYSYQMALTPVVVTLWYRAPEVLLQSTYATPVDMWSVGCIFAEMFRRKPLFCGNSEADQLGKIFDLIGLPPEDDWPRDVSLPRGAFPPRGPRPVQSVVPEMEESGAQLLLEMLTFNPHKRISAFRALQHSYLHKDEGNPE
T1 sequence (P30281 whole entry partner): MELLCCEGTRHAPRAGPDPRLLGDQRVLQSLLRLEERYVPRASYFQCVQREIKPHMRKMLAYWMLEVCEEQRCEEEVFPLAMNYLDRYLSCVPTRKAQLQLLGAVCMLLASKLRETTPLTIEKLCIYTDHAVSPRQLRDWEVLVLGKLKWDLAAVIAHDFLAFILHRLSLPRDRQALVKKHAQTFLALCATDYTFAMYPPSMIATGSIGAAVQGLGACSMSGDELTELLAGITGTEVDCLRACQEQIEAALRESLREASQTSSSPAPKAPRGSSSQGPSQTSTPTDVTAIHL
How it was run: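 Kinase reactions used kit CDK4/cyclin D3 at 12.5–25 ng/well with the kit ATP/substrate/metal mix in 20 mM HEPES (pH 7.4), 0.01% Tween20 and 2 mM DTT, run 45 min at room temperature. Phosphorylation was detected by IMAP fluorescence polarization (ex 485/em 535 nm) after 30 min binding in the dark. IC50 was fitted from percent inhibition against DMSO controls with and without enzyme.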

CDK2/cyclin A2 = molecular target: T2, CDK2/cyclin A2 (Homo sapiens, UniProt P24941); test: Human CDK2/cyclin A2 inhibitory activity (QS S Assist CDK2/Cyclin A2_FP Kit, IMAP fluorescent polarization); type: biochemical; conditions: read-out: CDK2 Activity symbol
T2 construct: purchased Carna Biosciences, Inc. QS S Assist CDK2/Cyclin A2_FP Kit
How it was run: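 Kit CDK2/cyclin A2 (2.5 ng/well) was reacted with kit ATP/substrate/metal in 20 mM HEPES pH 7.4, 0.01% Tween 20 and 2 mM DTT for 60 min at room temperature. IMAP binding reagent was added for 30 min, then fluorescence polarization was read at 485/535 nm. IC50 came from dose-response fitting of percent inhibition.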

Row | SMILES | IC50 (CDK4/cyclin D3) [nM] | IC50 (CDK2/cyclin A2) [nM]
1 | C[C@@H](O)Cc1cc2cnc(Nc3ccc(CN4CCN(CCO)CC4)cn3)nc2c(N2CCCCC2)n1 [Compound 168] | 10 to 100 | ≥ 100
2 | C[C@@H](O)Cc1cc2cnc(Nc3ccc(N4CCNCC4=O)cn3)nc2c(N2CCCCC2)n1 [Compound 169] | 10 to 100 | ≥ 100
3 | C[C@@H](O)Cc1cc2cnc(Nc3ccc4c(n3)CCN(CCO)C4)nc2c(N2CCCCC2)n1 [Compound 170] | 10 to 100 | ≥ 100
4 | C[C@@H](CO)c1cc2cnc(Nc3ccc4c(n3)CCN(CCO)C4)nc2c(N2CCCCC2)n1 [Compound 171] | 10 to 100 | ≥ 100
5 | C[C@@H](O)c1cc2cnc(Nc3ccc(CN4CCN(C)CC4)cn3)nc2c(N2CCC2)n1 [Compound 172] | 10 to 100 | ≥ 100
6 | C[C@@H](O)c1cc2cnc(Nc3ccc(CN4CCN(C)CC4)cn3)nc2c(N2CCCC2(C)C)n1 [Compound 173] | < 10 | 10 to 100
7 | CC(O)c1cc2cnc(Nc3ccc(CN4CCN(C)CC4)cn3)nc2c(N2C3CCCC2CC3)n1 (stereo not shown) [Compound 174] | < 10 | ≥ 100
8 | C[C@@H](O)c1cc2cnc(Nc3ccc4c(n3)CCN(C3CNC3)C4)nc2c(N2CCCCC2)n1 [Compound 175] | < 10 | ≥ 100
9 | C[C@@H](O)c1cc2cnc(Nc3ccc4c(n3)CCN(C3CN(CCO)C3)C4)nc2c(N2CCCCC2)n1 [Compound 176] | < 10 | ≥ 100
10 | C[C@@H](O)c1cc2cnc(Nc3ccc(CN4CCN(C)CC4)cn3)nc2c(N2CCCOCC2)n1 [Compound 177] | < 10 | ≥ 100
11 | C[C@@H](O)c1cc2cnc(Nc3ccc(CN4CCN(CCO)CC4)cn3)nc2c(N2CCCOCC2)n1 [Compound 178] | < 10 | ≥ 100
12 | C[C@@H](O)c1cc2cnc(Nc3ccc(CN4CCN(C)CC4)cn3)nc2c(N2CCC[C@H](F)C2)n1 [Compound 179] | < 10 | ≥ 100
13 | C[C@@H](O)c1cc2cnc(Nc3ccc(CN4CCN(CCO)CC4)cn3)nc2c(N2CCC[C@H](F)C2)n1 [Compound 180] | < 10 | ≥ 100
14 | C[C@@H](O)c1cc2cnc(Nc3ccc(CN4CCN(CCO)CC4)cn3)nc2c(N2CC[C@H](F)C2)n1 [Compound 181] | 10 to 100 | ≥ 100
15 | C[C@@H](O)c1cc2cnc(Nc3ccc(CN4CCN(CCO)CC4)cn3)nc2c(N2CC[C@@H](F)C2)n1 [Compound 182] | < 10 | ≥ 100
16 | C[C@H](O)CN1CCN(Cc2ccc(Nc3ncc4cc([C@@H](C)O)nc(N5CCCCC5)c4n3)nc2)CC1 [Compound 183, (S)-1-(4-((6-((6-((R)-1-hydroxyethyl)-8-(piperidin-1-yl)pyrido[3,4-d]pyrimidin-2-yl)amino)pyridin-3-yl)methyl)piperazin-1-yl)propan-2-ol] | < 10 | ≥ 100
17 | Cc1nc(Nc2ncc3cc([C@@H](C)O)nc(N4C5CCC4CC5)c3n2)ccc1N1CCN(C)CC1 [Compound 185] | < 10 | ≥ 100
18 | C[C@@H](O)c1cc2cnc(Nc3ccc(CN4CCN(C)C[C@@H]4C)cn3)nc2c(N2CCCCC2)n1 [Compound 186] | < 10 | ≥ 100
19 | C[C@@H](O)c1cc2cnc(Nc3ccc(CN4CCN(C)C[C@@H]4C)cn3)nc2c(N2C3CCC2CC3)n1 [Compound 187] | < 10 | ≥ 100
20 | C[C@@H](O)c1cc2cnc(Nc3ccc(CN4CCN(C)[C@@H](C)C4)cn3)nc2c(N2CCCCC2)n1 [Compound 188] | < 10 | ≥ 100
21 | C[C@@H](O)c1cc2cnc(Nc3ccc(CN4CCN(C)[C@@H](C)C4)cn3)nc2c(N2C3CCC2CC3)n1 [Compound 189] | < 10 | ≥ 100
22 | C[C@@H](O)c1cc2cnc(Nc3ccc(CN4CCN(CCO)CC4)cn3)nc2c(-c2ccccc2)n1 [Compound 190] | 10 to 100 | ≥ 100
23 | C[C@@H](O)c1cc2cnc(Nc3ccc(N4CCNCC4=O)cn3)nc2c(-c2ccccc2)n1 [Compound 191] | 10 to 100 | ≥ 100
